How the values were obtained:
[1] = biological target: T1, Human melanin-concentrating hormone (MCH1) (Homo sapiens, UniProt Q99705); experiment: Radioligand binding, human melanin-concentrating hormone MCH1 membranes, FlashPlate, [125I]-S36057; details: compound at 10 μM; for A6: inhibition of radioligand binding: [125I]-S36057, human MCH1 membranes
T1 construct: purchased Perkin Elmer Biosignal
How it was run: (§1)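 Cloned human receptor membranes were coated onto FlashPlate wells and incubated with radioligand and compound (added from a 0.5 mM DMSO daughter plate) for 1 hour at room temperature in the dark. Scintillation counting gave percent inhibition, with DMSO defining total and reference ligand defining non-specific binding.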

[2] = biological target: T2, Human neuropeptide Y (NPY-Y1) (Homo sapiens, UniProt P25929); experiment: Radioligand binding, human neuropeptide Y NPY-Y1 membranes, FlashPlate, [125I]-PYY; details: compound at 10 μM, [125I]-PYY; for A9: inhibition of radioligand binding: human NPY-Y1 membranes
T2 construct: purchased Perkin Elmer Biosignal
T2 sequence (P25929 1-384): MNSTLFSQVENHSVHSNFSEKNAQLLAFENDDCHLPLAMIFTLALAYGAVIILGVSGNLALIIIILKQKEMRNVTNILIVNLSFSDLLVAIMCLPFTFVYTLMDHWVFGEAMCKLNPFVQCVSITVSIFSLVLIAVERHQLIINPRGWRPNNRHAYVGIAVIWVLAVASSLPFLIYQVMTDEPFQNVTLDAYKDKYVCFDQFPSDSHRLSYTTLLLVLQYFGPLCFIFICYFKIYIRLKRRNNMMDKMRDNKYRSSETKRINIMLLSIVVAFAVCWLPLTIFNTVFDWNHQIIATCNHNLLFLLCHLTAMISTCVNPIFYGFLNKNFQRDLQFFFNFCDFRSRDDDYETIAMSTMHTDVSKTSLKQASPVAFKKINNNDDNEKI
How it was run: as §1

Human Melanocortin (MC4) = biological target: T3, Human Melanocortin (MC4) (Homo sapiens, UniProt P32245); experiment: Radioligand binding, human melanocortin MC4 membranes, FlashPlate, [125I]-NDP-αMSH; details: compound at 10 μM, [125I]-NDP-αMSH; for A4: inhibition of radioligand binding: human MC4 membranes
T3 construct: purchased Perkin Elmer Biosignal
How it was run: as §1

Human κ-Opioid (KOP) = biological target: T4, Human κ-Opioid (KOP) (Homo sapiens, UniProt P41145); experiment: Radioligand binding, human κ-opioid (KOP) membranes, filtration, [3H]-Diprenorphine; details: compound at 10 μM, [3H]-Diprenorphine; for A2: inhibition of radioligand binding: human KOP membranes
T4 construct: purchased Perkin Elmer Biosignal
How it was run: (§2)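 Membranes from cloned human receptors were incubated with compound and radioligand for 1 hour at room temperature. Bound ligand was collected on 0.3% PEI-soaked filters, washed with cold 50 mM Tris-HCl pH 7.4, and counted by scintillation. Percent inhibition was computed against DMSO totals and reference-ligand nonspecific wells.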

Human Melanocortin (MC3) = biological target: T5, Human Melanocortin (MC3) (Homo sapiens, UniProt P41968); experiment: Radioligand binding, human melanocortin MC3 membranes, FlashPlate, [125I]-NDP-αMSH; details: compound at 10 μM, [125I]-NDP-αMSH; for A3: inhibition of radioligand binding: human MC3 membranes
T5 construct: purchased Perkin Elmer Biosignal
How it was run: as §1

Human opioid (ORL1) = biological target: T6, Human opioid (ORL1) (Homo sapiens, UniProt P41146); experiment: Radioligand binding, human opioid ORL1 membranes, FlashPlate, [125I]-Nociceptin; details: compound at 10 μM, [125I]-Nociceptin; for A10: inhibition of radioligand binding: human ORL1 membranes
T6 construct: purchased Perkin Elmer Biosignal
How it was run: as §1

Human δ-opioid (DOP) = biological target: T7, Human δ-opioid (DOP) (Homo sapiens, UniProt P41143); experiment: Radioligand binding, human δ-opioid (DOP) membranes, FlashPlate, [3H]-Bremazocine; details: compound at 10 μM, [3H]-Bremazocine; for A1: inhibition of radioligand binding: human DOP membranes
T7 construct: purchased Perkin Elmer Biosignal
How it was run: as §1

Human μ-opioid (MOP) = biological target: T8, Human μ-opioid (MOP) (Homo sapiens, UniProt P35372); experiment: Radioligand binding, human μ-opioid (MOP) membranes, FlashPlate, [3H]-Naloxone; details: compound at 10 μM, [3H]-Naloxone; for A7: inhibition of radioligand binding: human MOP membranes
T8 construct: purchased Perkin Elmer Biosignal
How it was run: as §1

Human neurokinin (NK1) = biological target: T9, Human neurokinin (NK1) (Homo sapiens, UniProt P25103); experiment: Radioligand binding, human neurokinin NK1 membranes, filtration, [125I]-Substance P; details: compound at 10 μM, [125I]-Substance P; for A8: inhibition of radioligand binding: human NK1 membranes
T9 construct: purchased Perkin Elmer Biosignal
How it was run: as §2

Mouse urotensin (mUR2) = biological target: T10, Mouse urotensin (mUR2) (Mus musculus, UniProt Q8VIH9); experiment: Radioligand binding, mouse urotensin mUR2 membranes, FlashPlate, [125I]-Urotensin II; details: compound at 10 μM, [125I]-Urotensin II; for A11: inhibition of radioligand binding: mouse mUR2 membranes
T10 construct: purchased Perkin Elmer Biosignal
T10 sequence (Q8VIH9 1-385): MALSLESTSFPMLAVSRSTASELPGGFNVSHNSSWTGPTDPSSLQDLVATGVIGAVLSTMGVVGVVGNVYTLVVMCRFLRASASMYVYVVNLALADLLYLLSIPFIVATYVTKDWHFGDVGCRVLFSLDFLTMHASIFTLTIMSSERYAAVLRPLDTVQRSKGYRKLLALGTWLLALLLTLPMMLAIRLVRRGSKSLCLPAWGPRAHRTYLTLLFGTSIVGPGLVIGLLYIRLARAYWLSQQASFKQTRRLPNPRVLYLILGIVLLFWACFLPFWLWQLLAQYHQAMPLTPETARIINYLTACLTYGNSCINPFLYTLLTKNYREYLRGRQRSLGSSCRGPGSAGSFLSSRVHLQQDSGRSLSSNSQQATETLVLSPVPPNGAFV
How it was run: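 Cloned mouse urotensin (mUR2) receptor membranes from Perkin Elmer Biosignal were immobilized in FlashPlate microplates using a proprietary coating. Each well got 19.5 μl buffer, then 0.5 μl of DMSO, reference ligand, or compound. Adding 5 μl of [125I]-Urotensin II, diluted to 5× final concentration in binding buffer, started binding. Plates were sealed with TopSeal-A and incubated 1 hour at room temperature in the dark. Wells were counted for 30 seconds each on a TopCount after a 60-second delay, and percentage inhibition was calculated.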

Human melanocortin (MC5) = biological target: T11, Human melanocortin (MC5) (Homo sapiens, UniProt P33032); experiment: Radioligand binding, human melanocortin MC5 membranes, FlashPlate, [125I]-NDP-αMSH; details: compound at 10 μM, [125I]-NDP-αMSH; for A5: inhibition of radioligand binding: human MC5 membranes
T11 construct: purchased Perkin Elmer Biosignal
How it was run: as §1

T8 sequence (P35372 whole entry): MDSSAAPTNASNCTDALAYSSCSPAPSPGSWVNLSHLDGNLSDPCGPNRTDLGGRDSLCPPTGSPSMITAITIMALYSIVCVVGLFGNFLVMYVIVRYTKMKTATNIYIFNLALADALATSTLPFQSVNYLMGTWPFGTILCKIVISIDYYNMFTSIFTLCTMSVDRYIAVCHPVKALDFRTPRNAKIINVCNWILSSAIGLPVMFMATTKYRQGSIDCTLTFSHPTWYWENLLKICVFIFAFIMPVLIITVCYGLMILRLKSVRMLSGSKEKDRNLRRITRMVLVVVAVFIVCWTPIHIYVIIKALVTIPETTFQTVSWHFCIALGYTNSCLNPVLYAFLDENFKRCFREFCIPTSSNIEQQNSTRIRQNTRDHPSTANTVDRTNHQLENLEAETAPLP
T11 sequence (P33032 whole entry): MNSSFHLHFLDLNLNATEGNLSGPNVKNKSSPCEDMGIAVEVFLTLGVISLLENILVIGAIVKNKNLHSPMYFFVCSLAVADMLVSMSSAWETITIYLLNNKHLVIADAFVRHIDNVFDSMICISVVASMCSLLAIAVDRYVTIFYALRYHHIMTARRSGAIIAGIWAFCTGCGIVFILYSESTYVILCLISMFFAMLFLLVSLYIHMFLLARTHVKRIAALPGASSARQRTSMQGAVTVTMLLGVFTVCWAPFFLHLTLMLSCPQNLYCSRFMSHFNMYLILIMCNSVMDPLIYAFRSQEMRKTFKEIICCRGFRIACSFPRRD
T6 sequence (P41146 whole entry): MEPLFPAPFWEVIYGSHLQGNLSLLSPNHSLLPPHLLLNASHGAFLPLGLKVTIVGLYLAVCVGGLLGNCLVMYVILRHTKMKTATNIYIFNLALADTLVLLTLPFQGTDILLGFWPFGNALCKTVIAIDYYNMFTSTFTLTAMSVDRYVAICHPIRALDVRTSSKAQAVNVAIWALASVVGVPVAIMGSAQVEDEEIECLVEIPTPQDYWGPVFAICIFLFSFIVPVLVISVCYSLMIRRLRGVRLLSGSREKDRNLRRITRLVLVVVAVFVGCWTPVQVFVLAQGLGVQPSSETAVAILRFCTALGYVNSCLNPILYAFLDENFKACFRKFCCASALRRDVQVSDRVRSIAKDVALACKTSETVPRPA
T1 sequence (Q99705 whole entry): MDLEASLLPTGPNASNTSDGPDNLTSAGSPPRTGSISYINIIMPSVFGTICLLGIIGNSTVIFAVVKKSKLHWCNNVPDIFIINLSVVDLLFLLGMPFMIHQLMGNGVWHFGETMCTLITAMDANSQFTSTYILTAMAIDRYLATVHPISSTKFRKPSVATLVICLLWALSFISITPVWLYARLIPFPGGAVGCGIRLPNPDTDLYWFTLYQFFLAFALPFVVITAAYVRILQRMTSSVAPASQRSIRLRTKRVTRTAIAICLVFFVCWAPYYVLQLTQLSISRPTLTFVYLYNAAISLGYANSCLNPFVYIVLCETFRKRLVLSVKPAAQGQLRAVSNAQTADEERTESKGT
T9 sequence (P25103 whole entry): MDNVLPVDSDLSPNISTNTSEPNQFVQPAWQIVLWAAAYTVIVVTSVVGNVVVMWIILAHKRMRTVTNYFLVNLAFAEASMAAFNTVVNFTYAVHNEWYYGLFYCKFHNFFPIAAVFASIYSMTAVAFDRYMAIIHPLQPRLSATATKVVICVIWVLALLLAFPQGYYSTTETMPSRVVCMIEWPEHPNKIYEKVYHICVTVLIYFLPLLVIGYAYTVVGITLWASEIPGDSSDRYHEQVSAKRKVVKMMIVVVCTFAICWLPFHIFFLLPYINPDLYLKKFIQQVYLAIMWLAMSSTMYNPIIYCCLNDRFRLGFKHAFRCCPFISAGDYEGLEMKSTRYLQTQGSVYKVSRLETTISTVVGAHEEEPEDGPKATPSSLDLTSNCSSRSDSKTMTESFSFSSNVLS
T7 sequence (P41143 whole entry): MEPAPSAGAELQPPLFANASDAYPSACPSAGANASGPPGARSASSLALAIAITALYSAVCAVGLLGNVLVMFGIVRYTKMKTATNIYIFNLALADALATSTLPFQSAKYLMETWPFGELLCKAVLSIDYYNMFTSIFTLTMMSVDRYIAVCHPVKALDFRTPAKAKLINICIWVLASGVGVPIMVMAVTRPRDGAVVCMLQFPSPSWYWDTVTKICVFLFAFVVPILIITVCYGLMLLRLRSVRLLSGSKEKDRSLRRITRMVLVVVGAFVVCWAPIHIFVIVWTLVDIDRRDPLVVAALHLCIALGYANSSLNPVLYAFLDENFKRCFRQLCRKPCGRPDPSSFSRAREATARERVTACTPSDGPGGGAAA
T4 sequence (P41145 whole entry): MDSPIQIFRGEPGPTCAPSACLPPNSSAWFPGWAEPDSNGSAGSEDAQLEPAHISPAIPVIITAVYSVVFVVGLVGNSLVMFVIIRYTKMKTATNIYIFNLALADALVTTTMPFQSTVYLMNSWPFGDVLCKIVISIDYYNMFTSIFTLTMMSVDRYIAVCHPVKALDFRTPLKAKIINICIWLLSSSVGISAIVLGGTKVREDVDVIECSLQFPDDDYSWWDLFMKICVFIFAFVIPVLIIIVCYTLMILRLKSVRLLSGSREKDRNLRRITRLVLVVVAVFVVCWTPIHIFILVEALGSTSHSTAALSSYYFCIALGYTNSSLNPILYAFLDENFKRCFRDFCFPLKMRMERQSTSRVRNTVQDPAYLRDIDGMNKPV
T5 sequence (P41968 whole entry): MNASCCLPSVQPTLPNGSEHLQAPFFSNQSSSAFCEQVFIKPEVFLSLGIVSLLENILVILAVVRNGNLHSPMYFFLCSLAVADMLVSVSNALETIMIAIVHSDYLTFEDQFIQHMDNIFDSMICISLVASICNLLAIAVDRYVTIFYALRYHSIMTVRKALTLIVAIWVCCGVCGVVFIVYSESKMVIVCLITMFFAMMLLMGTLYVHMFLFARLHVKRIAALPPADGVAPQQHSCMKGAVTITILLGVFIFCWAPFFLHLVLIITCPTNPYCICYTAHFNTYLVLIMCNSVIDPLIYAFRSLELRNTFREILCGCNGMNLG
T3 sequence (P32245 whole entry): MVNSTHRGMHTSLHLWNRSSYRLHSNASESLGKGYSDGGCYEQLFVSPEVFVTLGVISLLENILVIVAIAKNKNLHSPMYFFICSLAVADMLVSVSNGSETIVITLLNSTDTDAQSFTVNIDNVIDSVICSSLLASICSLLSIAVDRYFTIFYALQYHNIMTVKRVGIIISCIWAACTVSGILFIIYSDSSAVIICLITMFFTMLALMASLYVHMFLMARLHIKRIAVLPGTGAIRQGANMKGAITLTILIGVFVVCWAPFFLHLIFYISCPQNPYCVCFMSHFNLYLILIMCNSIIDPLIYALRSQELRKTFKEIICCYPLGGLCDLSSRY

Compound	A6: inhibition of radioligand binding ([1]; 10 µM)	A9: inhibition of radioligand binding [2]	A2: inhibition of radioligand binding (Human κ-Opioid (KOP))	A3: inhibition of radioligand binding (Human Melanocortin (MC3))	A10: inhibition of radioligand binding (Human opioid (ORL1))	A1: inhibition of radioligand binding (Human δ-opioid (DOP))	A7: inhibition of radioligand binding (Human μ-opioid (MOP))	A8: inhibition of radioligand binding (Human neurokinin (NK1))	A11: inhibition of radioligand binding (Mouse urotensin (mUR2))	A5: inhibition of radioligand binding (Human melanocortin (MC5))	A4: inhibition of radioligand binding (Human Melanocortin (MC4))	A10: inhibition of radioligand binding (Human opioid (ORL1); 10 µM)	A7: inhibition of radioligand binding (Human μ-opioid (MOP); 10 µM)	A5: inhibition of radioligand binding (Human melanocortin (MC5); 10 µM)	also measured
NCCC(=O)NC1C(OCc2ccc(Cl)cc2)OC(COCc2ccc3ccccc3c2)C(O)C1OCc1ccc(Cl)cc1 (single isomer, unassigned) [compound 472]	+ (“+” indicates greater than 50% inhibition at 10 μM)	− (“−” indicates less than 50% inhibition at 10 μM)	− (“−” indicates less than 50% inhibition at 10 μM)	+ (“+” indicates greater than 50% inhibition at 10 μM)	− (“−” indicates less than 50% inhibition at 10 μM)	− (“−” indicates less than 50% inhibition at 10 μM)	− (“−” indicates less than 50% inhibition at 10 μM)	+ (“+” indicates greater than 50% inhibition at 10 μM)	− (“−” indicates less than 50% inhibition at 10 μM)	+ (“+” indicates greater than 50% inhibition at 10 μM)	–	–	–	–	A4: inhibition of radioligand binding (Human Melanocortin (MC4); 10 µM): + (“+” indicates greater than 50% inhibition at 10 μM)
NCCC(=O)NC1C(OCc2ccc(Cl)cc2)OC(COCc2ccccc2)C(O)C1OCc1ccc(Cl)cc1 (single isomer, unassigned) [compound 473]	+ (“+” indicates greater than 50% inhibition at 10 μM)	− (“−” indicates less than 50% inhibition at 10 μM)	− (“−” indicates less than 50% inhibition at 10 μM)	− (“−” indicates less than 50% inhibition at 10 μM)	–	− (“−” indicates less than 50% inhibition at 10 μM)	–	+ (“+” indicates greater than 50% inhibition at 10 μM)	− (“−” indicates less than 50% inhibition at 10 μM)	–	− (“−” indicates less than 50% inhibition at 10 μM)	− (“−” indicates less than 50% inhibition at 10 μM)	+ (“+” indicates greater than 50% inhibition at 10 μM)	+ (“+” indicates greater than 50% inhibition at 10 μM)	–
NCCC(=O)NC1C(OCc2ccc(Cl)cc2)OC(COCc2ccccc2)C(O)C1OCc1ccc(Cl)cc1 (single isomer, unassigned) [compound 474]	− (“−” indicates less than 50% inhibition at 10 μM)	− (“−” indicates less than 50% inhibition at 10 μM)	− (“−” indicates less than 50% inhibition at 10 μM)	− (“−” indicates less than 50% inhibition at 10 μM)	–	− (“−” indicates less than 50% inhibition at 10 μM)	–	+ (“+” indicates greater than 50% inhibition at 10 μM)	− (“−” indicates less than 50% inhibition at 10 μM)	–	− (“−” indicates less than 50% inhibition at 10 μM)	+ (“+” indicates greater than 50% inhibition at 10 μM)	− (“−” indicates less than 50% inhibition at 10 μM)	− (“−” indicates less than 50% inhibition at 10 μM)	–
NCCC(=O)NC1C(OCc2ccc(Cl)cc2)OC(COCc2ccc(Cl)cc2)C(O)C1OCc1ccc(Cl)cc1 (single isomer, unassigned) [compound 475]	–	− (“−” indicates less than 50% inhibition at 10 μM)	− (“−” indicates less than 50% inhibition at 10 μM)	− (“−” indicates less than 50% inhibition at 10 μM)	− (“−” indicates less than 50% inhibition at 10 μM)	− (“−” indicates less than 50% inhibition at 10 μM)	− (“−” indicates less than 50% inhibition at 10 μM)	+ (“+” indicates greater than 50% inhibition at 10 μM)	− (“−” indicates less than 50% inhibition at 10 μM)	+ (“+” indicates greater than 50% inhibition at 10 μM)	+ (“+” indicates greater than 50% inhibition at 10 μM)	–	–	–	A6: inhibition of radioligand binding [1]: − (“−” indicates less than 50% inhibition at 10 μM)
NCCC(=O)NC1C(OCc2ccc(Cl)cc2)OC(COCc2ccc(Cl)cc2)C(O)C1OCc1ccc(Cl)cc1 (single isomer, unassigned) [compound 476]	–	–	–	–	–	–	–	–	–	–	–	–	–	–	A6: inhibition of radioligand binding, human melanin-concentrating hormone (MCH1) ([1]; [125I]-S36057): + (“+” indicates greater than 50% inhibition at 10 μM); A9: inhibition of radioligand binding, human neuropeptide Y (NPY-Y1) [2]: − (“−” indicates less than 50% inhibition at 10 μM); A4: inhibition of radioligand binding, human melanocortin (MC4) (Human Melanocortin (MC4)): + (“+” indicates greater than 50% inhibition at 10 μM); A2: inhibition of radioligand binding, human κ-opioid (KOP) (Human κ-Opioid (KOP)): − (“−” indicates less than 50% inhibition at 10 μM); A3: inhibition of radioligand binding, human melanocortin (MC3) (Human Melanocortin (MC3)): + (“+” indicates greater than 50% inhibition at 10 μM); A10: inhibition of radioligand binding, human opioid (ORL1) (Human opioid (ORL1)): + (“+” indicates greater than 50% inhibition at 10 μM); A1: inhibition of radioligand binding, human δ-opioid (DOP) (Human δ-opioid (DOP)): − (“−” indicates less than 50% inhibition at 10 μM); A7: inhibition of radioligand binding, human μ-opioid (MOP) (Human μ-opioid (MOP)): + (“+” indicates greater than 50% inhibition at 10 μM); A8: inhibition of radioligand binding, human neurokinin (NK1) (Human neurokinin (NK1)): + (“+” indicates greater than 50% inhibition at 10 μM); A11: inhibition of radioligand binding, mouse urotensin (mUR2) (Mouse urotensin (mUR2)): − (“−” indicates less than 50% inhibition at 10 μM); A5: inhibition of radioligand binding, human melanocortin (MC5) (Human melanocortin (MC5)): + (“+” indicates greater than 50% inhibition at 10 μM)
